Two molecules from patent publication US8426427B2, “Fused heterocyclic derivative, pharmaceutical composition comprising the derivative, and use of the composition for medical purposes” (Kissei Pharmaceutical Co., Ltd., priority 2007, dated 2013) can be followed below.

The target in one data set is T1, human GnRHR1 (Homo sapiens, UniProt P30968).
T1 construct: expressed in transfected cells
T1 sequence (P30968 1-328): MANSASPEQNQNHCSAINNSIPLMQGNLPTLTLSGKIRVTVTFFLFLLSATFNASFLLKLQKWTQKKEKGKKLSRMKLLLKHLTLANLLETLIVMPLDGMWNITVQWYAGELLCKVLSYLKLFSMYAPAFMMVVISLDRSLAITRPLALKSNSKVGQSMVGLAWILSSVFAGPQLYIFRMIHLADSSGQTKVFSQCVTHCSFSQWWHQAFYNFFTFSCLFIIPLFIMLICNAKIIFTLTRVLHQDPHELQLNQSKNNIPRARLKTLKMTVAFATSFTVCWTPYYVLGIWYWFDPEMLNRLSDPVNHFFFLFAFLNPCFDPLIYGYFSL
The data set is described as follows: Inhibitory effect for the change of calcium levels in GnRH-stimulated cells (hGnRHR1#1 HEK293 cells). The following applies: hGnRHR1#1 cells (HEK293 stably expressing human GnRHR1), 10 nM GnRH added, FLIPR calcium dye; read-out: IC50 (drug concentration at which 50% GnRH-stimulated intracellular calcium flux was inhibited). It counts as cell-based. An excerpt:
1) Cloning and Construction of the Vector Expressing Human GnRH Receptor1 (GnRHR1)
Using cDNA derived from human pituitary (BECTON DICKINSON) as a template, the DNA fragment coding 45 to 1115 by of human GnRHR1 (Accession No. L03380), which was reported by Kakar et al., was amplified by PCR method and inserted into the multi-cloning site of pcDNA3.1(+) (Invitrogen). The DNA sequence inserted was perfectly matched to the previously reported sequence.
2) Establishment of Cell Line Stably Expressing Human GnRH Receptor1 HEK293 Cells
The expression vector of human GnRHR1 gene, was digested by XhoI into a linear DNA. The linear DNA was transfected into HEK293 cells by means of lipofection (Lipofectamine2000: Invitrogen). Neomycin resistant cell lines were selected by culture in the medium containing G418 (Invitrogen) at 1 mg/mL, and then the change of calcium levels in GnRH-stimulated cells was measured by the method described below.
3) Assay of Inhibitory Effect for the Change of Calcium Levels in GnRH-Stimulated Cells
Antagonizing effect of compounds for human GnRHR1 was evaluated by depression of calcium levels in GnRH-stimulated cells. hGnRHR1#1 cells were seeded into a 96-well culture plate at a density of 1.5×10^5 cells/well and cultured for a day. […] Then, intracellular calcium levels were determined under the following condition by using FLEX STATION (Molecular Devices). […]
On the technique in general: A change in cytosolic calcium serves as a functional read-out for many receptors and channels.

The nature of data set [1]: Assay for oral absorbability: plasma drug concentration after oral administration to rats. It counts as in vivo, SD rats. The following applies: for C360 (plasma drug concentration at 360 minutes after administration) / Cmax: fasted male SD rats, oral 3 mg/kg, plasma; for availability by oral administration compared with Control compound 1 / sustainability of blood concentration 6 hours after oral administration compared with Control compound / Cmax: rat; for Cmax: LC-MS/MS, read-out: Cmax (maximum plasma drug concentration). The protocol:
Assay for Oral Absorbability
1) Preparation of the Samples for Measurement of the Drug Concentration after Oral Administration
As experimental animal, overnight fasted SD rats (Charles River, male, 7 weeks of age, 170-210 g) were used. Three mg of a test compound was dissolved by adding 0.2 mL of N,N-dimethylacetoamide, 9.794 mL of 0.5% aqueous methylcellulose solution and 0.006 mL of 2N NaOH, and then 0.3 mg/mL solution was prepared. The body weights of rats were measured, and the solution of the test compound was administered orally at the dose of 10 mL/kg (3 mg/kg). The oral administration was performed with gastric tube for rat and 2.5 mL syringe. The sampling times for collection of blood were 15, 30, 60, 120, 240 and 360 minutes after the oral administration. The blood was centrifuged, and the plasma was used as the sample for measurement of the drug concentration in blood.
2) Measurement of the Drug Concentration
To 0.025 mL of the plasma obtained in 1) described above, 0.1 mL of an adequate internal standard material was added according to the usual method, and then deproteinization was performed by adding 0.875 mL of acetonitrile. After centrifugation, 0.005 mL of the supernatant was injected into LC-MS/MS. The drug concentration in plasma was measured by LC-MS/MS method under the conditions as follows. To 0.05 mL of the blank plasma were added the internal standard material and various test compounds adequately according to the usual method, similar operating described above was done, and then the standard curves were prepared.
In the oral administration, the maximum plasma drug concentration (Cmax) and the plasma drug concentration at 360 minutes after administration (C360) are shown in Tables 8 and 9, respectively.

Take `COCCOc1ccc(F)c(F)c1CN(C)c1ccc(F)c(-n2c(=O)[nH]c3csc(C(=O)O)c3c2=O)c1` [Example 1, 5-Carboxy-3-(2-fluoro-5-{N-[2,3-difluoro-6-(2-methoxyethoxy)benzyl]-N-methylamino}-phenyl)thieno[3,4-d]pyrimidine-2,4(1H,3H)-dione]: the IC50 at human GnRHR1 came to 51 nM. For the same molecule, in data set [1], the C360 (plasma drug concentration at 360 minutes after administration) was 1010 ng/mL, the “availability by oral administration compared with Control compound 1” value was “more excellent availability than the Control compound 1”, the “sustainability of blood concentration 6 hours after oral administration compared with Control compound” value is “more superior in sustainability than the Control compound” and the Cmax stood at 17600 ng/mL.

Turning to `CN(Cc1c(F)cccc1F)c1ccc(F)c(-n2c(=O)[nH]c3csc(C(=O)O)c3c2=O)c1` [Example 2], the IC50 on human GnRHR1 came to 133 nM. Moreover, in data set [1], the C360 (plasma drug concentration at 360 minutes after administration) came to 2170 ng/mL, the “availability by oral administration compared with Control compound 1” value is given as “more excellent availability than the Control compound 1”, the “sustainability of blood concentration 6 hours after oral administration compared with Control compound” value is recorded as “more superior in sustainability than the Control compound” and the Cmax is 14900 ng/mL.
